{
  "source": "paper PMC3330251",
  "about": "(Journal of Medicinal Chemistry, 2012)",
  "key": {"[1]": {"conditions": "cited from earlier work"}, "[2]": {"conditions": "human liver microsomes; cited from earlier work"}, "[3]": {"system": "potassium ion channel coded by hERG", "conditions": "compound concentration as high as 300 µM; cited from earlier work"}, "[4]": {"system": "L. donovani (axenic amastigote stage, MHOM-ET-67/L82)", "conditions": "relative to 1d"}, "[5]": {"system": "P. falciparum (erythrocytic stage, K1 strain)", "conditions": "relative to the standard (chloroquine)"}},
  "data": [
    {"smiles": "CCc1ccc(C(=O)NC(=O)c2ccccc2O)cc1", "note": "[Compound 1a, N-(4-Ethylbenzoyl)-2-hydroxybenzamide]", "values": [
      {"measurement": "protein binding in human plasma", "setting": "[1]", "value": 99.9, "unit": "%"},
      {"measurement": "intrinsic clearance / metabolism rate in HLM", "setting": "[2]", "value": 282, "unit": "µL/min/mg proteins"},
      {"measurement": "hERG inhibition", "setting": "[3]", "value": "not inhibited"}
    ]},
    {"smiles": "O=C(NC(=O)c1ccccc1O)c1ccc(C(F)(F)F)cc1", "note": "[Compound 1g, 2-Hydroxy-N-(4-(trifluoromethyl)benzoyl)benzamide]", "values": [
      {"measurement": "times less potent than 1d against L. donovani", "setting": "[4]", "value": 4, "unit": "times"}
    ]},
    {"smiles": "O=C(NC(=O)c1ccccc1O)c1ccc2ccccc2c1", "note": "[Compound 1t, N-(2-Hydroxybenzoyl)-2-naphthamide]", "values": [
      {"measurement": "fold less active than the standard against malaria parasites", "setting": "[5]", "value": 2, "unit": "fold"}
    ]},
    {"smiles": "OC(Cn1cncn1)(Cn1cncn1)c1ccc(F)cc1F", "note": "[fluconazole, reference compound]", "values": [
      {"measurement": "protein binding in human plasma", "setting": "[1]", "value": 23.7, "unit": "%"}
    ]}
  ]
}
